# Data taken from US9546401B2, “Assays and methods for selecting a treatment regimen for a subject with depression” (The General Hospital Corporation, priority 2011, dated 2017).
# Like-named read-outs stand apart in the source and are kept apart here.
# Test system: SSRI-resistant outpatients with major depressive disorder (MDD)
# Conditions: for CGI-S Mean score reduction / HDRS-17 % Remission / HDRS-17 % Response / HDRS-17 Mean score reduction / QIDS-SR % Remission / QIDS-SR % Response / QIDS-SR Mean score reduction: 15 mg/day adjunct to an SSRI
# Source text: Using the sequential parallel design […] For those randomly assigned to the placebo/placebo sequence, both responders and non-responders to placebo during the first phase (n=25) remain on placebo during the second phase. […] Data from the previous double-blind, placebo-controlled study (Trial 1) can be pooled into the instant study (Trial 2) to provide a more accurate estimate of the placebo effect size, with a weighted average from the two Phases 1 (one from Trial 1 and one from Trial 2) and two Phases 2 (one from Trial 1 and one from Trial 2).
# All patients are asked to take one tablet of blinded study medication in the morning, in addition to their stable dose of ongoing SSRI treatment. […] Therefore, for patients randomly assigned to the placebo/placebo sequence, the tablets of study medication are placebo during both phases of the study.
# The primary efficacy measure can include the change in 17-item Hamilton Rating Scale for Depression (HAM-D-17) score. […] A remission is, for example, defined as a HAM-D-17 score less than 8 at endpoint. Secondary measures of efficacy can include change in CGI-severity, with “clinical response defined” as CGI-S of 1 or 2 at endpoint. Patients with a CGI-I score greater than 5 at any post baseline visit or a 50 percent or greater worsening of depressive symptoms from baseline to that visit are discontinued from the study. Subjects are also discontinued from the study with any emergence of suicidality, homicidality, mania, or psychosis. Additional exemplary instruments that can be administered according to the study schedule include the following: • (1) Structured Clinical Interview for DSM-IV: The SCID-I/P, administered by the clinician, proceeds by modules to diagnose the different Axis I disorders. Questions are asked exactly as written, and each is based on the individual criteria from DSM-IV. Answers are generally rated on a scale of 1-3 (1=doubtful, 2=probable, 3=definite), and, based on the number of positive answers, a diagnosis is determined by a clinician. While the entire SCID-I/P is administered at screen, the mood module is administered at each follow up visit. • (2) The MGH Antidepressant Treatment History Questionnaire (MGH-ATR): The MGH-ATR provides specific criteria for the adequate dose and adequate length of a trial for it to be considered a failure, thus allowing clinicians to systematically collect data aimed at assessing the degree of treatment-resistance of the current major depressive episode. • (3) The 28-item Hamilton Depression Scale (HAM-D-28): This version allows scoring of the HAM-D-17, 21-, 25-, and 28-item scales. This instrument is completed by the clinician by using a structured interview and defined anchor points, and aims to quantify the degree of depression over the past 7 days. The HAM-D is the most widely studied instrument for depression, and its reliability and validity are high. • (4) Clinical Global Impressions—Severity and Improvement (CGI-S, CGI-I): These two instruments are scored 1-7 by the clinician based on assessment of the patient's clinical status. They measure, based on history and scores on other instruments: a) Depressive severity (CGI-S) and b) Clinical Improvement (CGI-I). […] Safety Measurements
# Data are entered and error-checked at each clinical site involved in the study. Study staff and subjects may have the option to enter self-evaluations into the system directly using DatStat Illume™. The process of data entry is supervised by the DCRP staff. Once the data set is entered and checked, analyses are conducted. Both a completer analysis of all patients finishing the trial and an intent-to-treat analysis examining all patients enrolled into the trial are used to define the severity of depression at endpoint. Examination of both study completers and all patients randomized can provide the broadest assessment of the effects of treatment in trials of such kind.
# [1] = SSRI + 15 mg/day versus SSRI + placebo, after 30 days
smiles,measurement,setting,value
"CN1c2c(nc(N)[nH]c2=O)NC[C@@H]1CNc1ccc(C(=O)N[C@@H](CCC(=O)O)C(=O)O)cc1 [6(S)-5-MTHF, 6(S)-5-methyltetrahydrofolate]",CGI-S Mean score reduction,Phase 1,−1.3
same,HDRS-17 % Remission,Phase 1,15.7%
same,HDRS-17 % Response,Phase 1,36.8%
same,HDRS-17 Mean score reduction,Phase 1,−7.5
same,QIDS-SR % Remission,Phase 1,21.0%
same,QIDS-SR % Response,Phase 1,36.8%
same,QIDS-SR Mean score reduction,Phase 1,−8.1
same,CGI-S Mean score reduction,Phase 2,−0.5
same,HDRS-17 % Remission,Phase 2,11.1%
same,HDRS-17 % Response,Phase 2,27.7%
same,HDRS-17 Mean score reduction,Phase 2,−3.8
same,QIDS-SR % Remission,Phase 2,5.5%
same,QIDS-SR % Response,Phase 2,11.1%
same,QIDS-SR Mean score reduction,Phase 2,−1.3
same,CGI-S Mean score reduction,Pooled Phases 1 and 2,−0.92
same,HDRS-17 % Remission,Pooled Phases 1 and 2,13.4%
same,HDRS-17 % Response,Pooled Phases 1 and 2,32.3%
same,HDRS-17 Mean score reduction,Pooled Phases 1 and 2,−5.58
same,QIDS-SR % Remission,Pooled Phases 1 and 2,13.3%
same,QIDS-SR % Response,Pooled Phases 1 and 2,23.9%
same,QIDS-SR Mean score reduction,Pooled Phases 1 and 2,−4.7
same,"degree of improvement (HAM-D-17, QIDS-SR, CGI-S)",[1],"greater degree of reduction in the scores of HAM-D-17, QIDS-SR and CGI-S"
same,percentage of remitters (HAM-D-17 or QIDS-SR),[1],no significant difference
same,percentage of responders (50% or greater reduction in HAM-D-17),[1],response rate is higher for the 6(S)-5-MTHF group than the placebo group
